From patent publication US20190022089A1, “PHARMACEUTICAL COMPOSITIONS AND DOSAGE FORMS” (Ignyta, Inc., priority 2017, published 2019)

Legend:
ALK = ALK (Homo sapiens, UniProt Q9UM73); settings: cited from earlier work
TrkB = TrkB (Homo sapiens, UniProt Q16620); settings: cited from earlier work
[1] = Early clinical studies in humans, formulation without acidulant (exposure); settings: for AUC higher when taken with food: formulation without acidulant
[2] = Suitability of acids in 1:1 admixture: storage stability (appearance, HPLC); assay type: physicochemical; settings: for Most abundant impurity (area %): three months storage, HPLC
Experimental: The mixtures were prepared in duplicate for each sample, and stored in open top, 4 mL glass vials at (1) 60° C./dry heat and (2) 40° C. and 75% relative humidity (RH).
All admixture samples and the control samples stored at the 60° C. and dry heat condition remained as dry powders.
The HPLC traces analyses were conducted on an Agilent 1100 LC, equipped with Agilent Diode Array Detector and Chemstation Software using the conditions found in the table below.

[3] = Single-dose food effect study in dogs; assay type: in vivo; settings: formulation that did not comprise at least one acidulant
Source text: Such food effects can cause difficulty during human testing of drugs as the fed or fasted condition of the patient can cause exposure or bioavailability of drugs to vary widely.

TrkC = TrkC (Homo sapiens, UniProt Q16288); settings: cited from earlier work
[4] = test system: cancer having at least one molecular alteration in one or more of ALK, ROS1, TrkA, TrkB and TrkC; assay: Early clinical studies in humans (antitumor effects); assay type: in vivo; settings: patients having various forms of cancer
[5] = Comparative pharmacokinetic study of F1 and F2 formulations; assay type: in vivo, human; settings: 800 mg fixed dose, 23 healthy subjects
Experimental: A comparative pharmacokinetic study in healthy, human subjects was conducted comparing a 200 mg dosage strength of pharmaceutical composition F1 (as described in Example 11) with a 200 mg dosage strength pharmaceutical composition F2 (as described in Example 10).
Pharmaceutical compositions F1 and F2, along with and lansoprazole, were administered orally with approximately 240 mL of water, according to the randomization scheme. Lansoprazole was administered as 30 mg lansoprazole delayed-release capsules.
Subjects were randomized into two groups, A and B. Periods 1 and 2 were conducted as a crossover design under fasting conditions where all subjects received F1 and F2. […] A representative summary of Periods 1, 2, and 3 and the pharmaceutical compositions subjects in groups A and B will receive in each Period is found below.
Subjects were randomized and received 3 out of 4 treatments in one of the following sequences: […] (i.e., Periods 1 and 2 were conducted as a crossover design under fasting conditions [Treatments A and B]). […] Each subject received each of the 3 assigned treatments on one occasion.
Treatment A: 30 mg lansoprazole (1×30 mg capsule), for 9 consecutive days (within ±1 hour of dosing time on Day 1), with 800 mg F1 (4×200 mg capsules) administered under fasting conditions 1.5 hours after administration of lansoprazole on Day 4. […]

Sequence of ALK (Q9UM73 19-1620): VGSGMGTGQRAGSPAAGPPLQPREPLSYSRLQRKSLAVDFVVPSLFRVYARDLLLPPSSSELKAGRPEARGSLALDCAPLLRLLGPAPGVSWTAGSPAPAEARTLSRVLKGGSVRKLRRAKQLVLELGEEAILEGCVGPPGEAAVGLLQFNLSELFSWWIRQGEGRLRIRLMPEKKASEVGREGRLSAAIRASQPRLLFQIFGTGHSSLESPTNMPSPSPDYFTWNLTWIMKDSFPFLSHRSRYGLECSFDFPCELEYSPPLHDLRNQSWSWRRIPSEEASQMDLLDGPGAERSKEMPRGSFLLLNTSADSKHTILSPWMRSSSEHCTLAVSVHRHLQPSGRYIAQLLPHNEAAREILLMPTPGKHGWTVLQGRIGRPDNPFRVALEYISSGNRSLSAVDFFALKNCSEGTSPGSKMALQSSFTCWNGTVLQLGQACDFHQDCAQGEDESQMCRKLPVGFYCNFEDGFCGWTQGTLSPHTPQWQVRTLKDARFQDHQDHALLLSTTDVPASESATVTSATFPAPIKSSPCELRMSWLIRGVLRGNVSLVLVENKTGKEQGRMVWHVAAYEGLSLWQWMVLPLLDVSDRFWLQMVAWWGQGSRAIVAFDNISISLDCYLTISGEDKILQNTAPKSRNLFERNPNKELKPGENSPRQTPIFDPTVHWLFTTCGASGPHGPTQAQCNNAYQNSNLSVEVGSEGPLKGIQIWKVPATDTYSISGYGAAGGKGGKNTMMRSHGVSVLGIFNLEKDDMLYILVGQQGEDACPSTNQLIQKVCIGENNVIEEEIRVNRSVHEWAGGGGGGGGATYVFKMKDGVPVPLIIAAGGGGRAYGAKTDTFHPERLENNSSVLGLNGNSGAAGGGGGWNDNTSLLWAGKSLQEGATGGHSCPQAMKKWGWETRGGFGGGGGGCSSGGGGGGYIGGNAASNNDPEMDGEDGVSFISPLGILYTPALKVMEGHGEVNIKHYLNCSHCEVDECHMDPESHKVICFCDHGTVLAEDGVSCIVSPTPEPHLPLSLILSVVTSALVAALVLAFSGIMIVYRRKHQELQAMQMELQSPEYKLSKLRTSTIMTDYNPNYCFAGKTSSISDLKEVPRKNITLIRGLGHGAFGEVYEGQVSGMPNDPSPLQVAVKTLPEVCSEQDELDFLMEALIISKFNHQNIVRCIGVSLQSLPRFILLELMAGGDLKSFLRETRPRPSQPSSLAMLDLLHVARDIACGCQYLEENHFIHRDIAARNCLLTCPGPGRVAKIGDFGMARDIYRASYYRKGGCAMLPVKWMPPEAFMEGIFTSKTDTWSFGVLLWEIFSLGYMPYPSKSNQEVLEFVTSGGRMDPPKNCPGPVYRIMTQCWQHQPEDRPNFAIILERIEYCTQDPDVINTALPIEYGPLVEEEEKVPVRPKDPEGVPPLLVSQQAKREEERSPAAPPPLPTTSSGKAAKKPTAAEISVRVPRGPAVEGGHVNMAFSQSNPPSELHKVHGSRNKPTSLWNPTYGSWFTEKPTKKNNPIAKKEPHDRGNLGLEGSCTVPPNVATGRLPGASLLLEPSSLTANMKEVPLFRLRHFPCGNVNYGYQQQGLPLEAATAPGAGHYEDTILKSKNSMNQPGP
Sequence of TrkB (Q16620 32-822): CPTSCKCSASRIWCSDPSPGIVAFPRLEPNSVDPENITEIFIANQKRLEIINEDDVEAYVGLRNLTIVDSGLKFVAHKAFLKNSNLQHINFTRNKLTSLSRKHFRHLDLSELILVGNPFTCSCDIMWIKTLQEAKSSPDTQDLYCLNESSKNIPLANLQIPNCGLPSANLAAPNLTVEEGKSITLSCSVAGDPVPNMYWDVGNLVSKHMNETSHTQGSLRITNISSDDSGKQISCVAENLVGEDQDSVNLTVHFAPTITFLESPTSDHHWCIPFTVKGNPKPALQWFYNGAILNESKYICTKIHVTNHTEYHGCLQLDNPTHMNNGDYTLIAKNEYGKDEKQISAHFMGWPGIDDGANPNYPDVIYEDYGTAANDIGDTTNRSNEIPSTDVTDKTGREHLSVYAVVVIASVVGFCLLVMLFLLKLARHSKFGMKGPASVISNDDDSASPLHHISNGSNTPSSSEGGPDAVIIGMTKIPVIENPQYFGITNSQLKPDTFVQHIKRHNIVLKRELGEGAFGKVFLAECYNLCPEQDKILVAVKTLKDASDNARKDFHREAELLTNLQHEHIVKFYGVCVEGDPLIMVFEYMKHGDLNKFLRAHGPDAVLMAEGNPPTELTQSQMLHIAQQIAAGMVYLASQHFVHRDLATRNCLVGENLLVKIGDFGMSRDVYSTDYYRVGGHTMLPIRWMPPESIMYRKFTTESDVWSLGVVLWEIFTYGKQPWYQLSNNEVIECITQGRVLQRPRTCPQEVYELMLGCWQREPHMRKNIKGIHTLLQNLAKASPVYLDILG
Sequence of TrkC (Q16288 32-839): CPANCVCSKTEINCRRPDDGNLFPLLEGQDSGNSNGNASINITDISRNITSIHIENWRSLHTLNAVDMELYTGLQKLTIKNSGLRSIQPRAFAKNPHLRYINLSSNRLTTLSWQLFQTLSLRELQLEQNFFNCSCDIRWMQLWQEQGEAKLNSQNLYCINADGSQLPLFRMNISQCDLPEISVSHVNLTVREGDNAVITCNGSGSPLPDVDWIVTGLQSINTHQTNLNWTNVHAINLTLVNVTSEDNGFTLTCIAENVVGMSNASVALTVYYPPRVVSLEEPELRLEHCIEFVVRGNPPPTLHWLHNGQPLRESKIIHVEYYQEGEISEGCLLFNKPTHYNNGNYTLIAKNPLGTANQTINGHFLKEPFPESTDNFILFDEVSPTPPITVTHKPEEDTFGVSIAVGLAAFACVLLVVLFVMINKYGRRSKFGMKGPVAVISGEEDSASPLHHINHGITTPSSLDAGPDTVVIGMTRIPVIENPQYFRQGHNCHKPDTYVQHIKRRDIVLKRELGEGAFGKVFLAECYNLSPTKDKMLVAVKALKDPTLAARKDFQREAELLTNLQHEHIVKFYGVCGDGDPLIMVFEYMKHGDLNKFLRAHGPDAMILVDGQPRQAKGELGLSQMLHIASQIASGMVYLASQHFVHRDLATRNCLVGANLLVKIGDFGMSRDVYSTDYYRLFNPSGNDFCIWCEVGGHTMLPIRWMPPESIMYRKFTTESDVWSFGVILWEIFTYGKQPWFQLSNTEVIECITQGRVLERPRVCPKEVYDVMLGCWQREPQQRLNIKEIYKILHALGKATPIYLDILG

- AUC higher when taken with food ([1]; 200 mg/m^2/day): approximately 200%
- AUC higher when taken with food ([1]; 400 mg/m^2/day): ~50%
- Cmax higher with food ([1]; both doses (200 and 400 mg/m^2/day)): approximately 150%
- exposures with concomitant proton pump inhibitor drugs (PPIs), such as lansoprazole ([1]; some patients): variable
- Most abundant impurity (area %) ([2]; 40° C./75% RH, listed as Control): 0.13%
- Most abundant impurity (area %) ([2]; 60° C. Dry Heat): 0.13%
- physical state observed ([2]; 13 days of storage, 40° C. and 75% RH): remained dry
- exposure levels, fed compared to fasting conditions [3]: approximately 2 fold
SMILES: CN1CCN(c2ccc(C(=O)Nc3n[nH]c4ccc(Cc5cc(F)cc(F)c5)cc34)c(NC3CCOCC3)c2)CC1 [N-[5-(3,5-difluorobenzyl)-1H-indazol-3-yl]-4-(4-methyl-piperazin-1-yl)-2-(tetrahydro-pyran-4-ylamino)-benzamide]
- inhibition (ALK): potent inhibitor
- inhibition (TrkB): potent inhibitor
- inhibition (TrkC): potent inhibitor
- antitumor effects [4]: antitumor effects
- correlation of total exposure with body weight or body surface area [5]: did not correlate with body weight or body surface area
